# Measurements as given in paper PMC11571207, “Stereorandomized Oncocins with Preserved Ribosome Binding and Antibacterial Activity” (Journal of Medicinal Chemistry, 2024).
# Non-standard residues stand in square brackets, D forms with d. Residues, ends and D or L forms follow the SMILES beside them.
# Key:
# P. aeruginosa PAO1 = test: microbe, parasite or virus in culture; conditions: for MIC P. aeruginosa, 12.5% MHB / MIC P. aeruginosa, Full MHB: P. aeruginosa PAO1, 16–20 h at 37 °C; for MIC P. aeruginosa, 12.5% MHB: 12.5% Müller–Hinton medium; for MIC P. aeruginosa, Full MHB: full Müller–Hinton medium; for MIC P. aeruginosa PAO1: supplement CSV
# From the text: (§1) We tested antibacterial effects against the Gram-negative bacteria Escherichia coli, Klebsiella pneumoniae, Pseudomonas aeruginosa, and Acinetobacter baumannii and the Gram-positive methicillin-resistant Staphylococcus aureus (MRSA).
# (§2) Bacterial growth assay (Figure S1), transmission electron microscopy (Figure S6), serum stability assay (Figure S7), circular dichroism spectral recording (Figures S8 and S9), antimicrobial and hemolysis activity assays (MIC and MHC), and vesicle leakage assay were carried out as described in earlier publications.[43],[44]
# (§3) Minimum inhibitory concentration assay
# (§4) Antimicrobial activity was assayed against P. aeruginosa PAO1, K. pneumoniae NCTC418, E. coli W3110, A. baumannii ATCC 19606, methicillin-resistant S. aureus COL (MRSA), and for selected peptides on P. aeruginosa PA14 and the polymyxin-B-resistant derivative PA14 2P4, as well as the clinical isolates ZEM-1A and ZEM9A, K. pneumoniae OXA-48, S. aureus Newman, Enterobacter cloacae and Burkholderia cenocepacia. The minimal inhibitory concentration (MIC) was determined by using broth microdilution method. A colo ny of bacteria was picked and grown in Luria-Bertani (LB) medium overnight at 37°C. For E. coli BW25113 sbmA::kan the medium was supplemented with 25 mg/L of kanamycin. The next day, the culture was then regrown in LB medium to log phase (OD600 = 0.6 to 0.8), which lasted approximately 4 h, and diluted to an OD600 of 0.022 in the desired medium. Stock solutions of 1 mg/mL of the samples were prepared in sterilized milliQ water and diluted to the beginning concentration of 64 μg/mL in 300 μL Mueller Hinton (MH)-medium. The diluted samples were added to first well of 96-well microtiter plate (TPP, untreated, Faust Laborbedarf, AG, Schaffhausen) and diluted serially by ½. Finally, 4 μL of the bacterial suspension was inoculated into the sample solutions (150 μL/well) with a final inoculation of about 5∙10^5 CFU/mL. The plates were then incubated at 37°C for 15-18h. For each assay, sterility (broth only) and growth control (broth with bacterial inoculum, without antibiotics) were checked with two columns in the plate. The next day, 15 μL of 3-(4,5-dimethylthiazol-2-yl)-2,5-diphenyltetrazolium bromide (MTT) was added to each well of the plate, such a way that MIC was defined as the lowest concentration of the peptide that inhibited visible growth of the tested
# K. pneumoniae NCTC 418 = test: microbe, parasite or virus in culture; conditions: for MIC K. pneumoniae, 12.5% MHB / MIC K. pneumoniae, Full MHB: K. pneumoniae NCTC 418, 16–20 h at 37 °C; for MIC K. pneumoniae, 12.5% MHB: 12.5% Müller–Hinton medium; for MIC K. pneumoniae, Full MHB: full Müller–Hinton medium; for MIC K. pneumoniae NCTC418: supplement CSV
# From the text: as §1, §2, §3, §4
# E. coli W3110 = test: microbe, parasite or virus in culture; conditions: for MIC E. coli, 12.5% MHB / MIC E. coli, Full MHB: E. coli W3110, 16–20 h at 37 °C, broth microdilution; for MIC E. coli, 12.5% MHB: 12.5% Müller–Hinton medium; for MIC E. coli, Full MHB: full Müller–Hinton medium; for MIC E. coli W3110: supplement CSV
# From the text: as §1, §2, §3, §4
# S. aureus COL (MRSA) = test: microbe, parasite or virus in culture; conditions: for MIC S. aureus, 12.5% MHB / MIC S. aureus, Full MHB: S. aureus COL (MRSA), 16–20 h at 37 °C; for MIC S. aureus, 12.5% MHB: 12.5% Müller–Hinton medium; for MIC S. aureus, Full MHB: full Müller–Hinton medium; for MIC S. aureus COL (MRSA): supplement CSV
# From the text: as §1, §2, §3, §4
# A. baumannii ATCC19606 = test: microbe, parasite or virus in culture; conditions: for MIC A. baumannii, 12.5% MHB / MIC A. baumannii, Full MHB: A. baumannii ATCC19606, 16–20 h at 37 °C; for MIC A. baumannii, 12.5% MHB: 12.5% Müller–Hinton medium; for MIC A. baumannii, Full MHB: full Müller–Hinton medium; for MIC A. baumannii ATCC19606: supplement CSV
# From the text: as §1, §2, §3, §4
# human red blood cells = test: Hemolysis assay, minimum hemolytic concentration; conditions: for Haemolysis on hRBC, MHC: 2.5% human red blood cells (final) in 10 mM phosphate, 150 mM NaCl, pH 7.4, 25 °C, 4 h, visual inspection; for MHC human red blood cells: supplement CSV
SMILES,"MIC P. aeruginosa, 12.5% MHB (P. aeruginosa PAO1)","MIC P. aeruginosa, Full MHB (P. aeruginosa PAO1)",MIC P. aeruginosa PAO1 (P. aeruginosa PAO1; 12.5% MH pH 7.4),MIC P. aeruginosa PAO1 (P. aeruginosa PAO1; full MH pH 7.4),"MIC K. pneumoniae, 12.5% MHB (K. pneumoniae NCTC 418)","MIC K. pneumoniae, Full MHB (K. pneumoniae NCTC 418)",MIC K. pneumoniae NCTC418 (K. pneumoniae NCTC 418; 12.5% MH pH 7.4),MIC K. pneumoniae NCTC418 (K. pneumoniae NCTC 418; full MH pH 7.4),"MIC E. coli, 12.5% MHB (E. coli W3110)","MIC E. coli, Full MHB (E. coli W3110)",MIC E. coli W3110 (E. coli W3110; 12.5% MH pH 7.4),MIC E. coli W3110 (E. coli W3110; full MH pH 7.4),"MIC S. aureus, 12.5% MHB (S. aureus COL (MRSA))","MIC S. aureus, Full MHB (S. aureus COL (MRSA))",MIC S. aureus COL (MRSA) (S. aureus COL (MRSA); 12.5% MH pH 7.4),MIC S. aureus COL (MRSA) (S. aureus COL (MRSA); full MH pH 7.4),"MIC A. baumannii, 12.5% MHB (A. baumannii ATCC19606)","MIC A. baumannii, Full MHB (A. baumannii ATCC19606)",MIC A. baumannii ATCC19606 (A. baumannii ATCC19606; 12.5% MH pH 7.4),MIC A. baumannii ATCC19606 (A. baumannii ATCC19606; full MH pH 7.4),further results
CC[C@H](C)[C@H](NC(=O)[C@H](CCCNC(=N)N)NC(=O)[C@H](CCCNC(=N)N)NC(=O)[C@@H]1CCCN1C(=O)[C@@H]1CCCN1C(=O)[C@H](CCCNC(=N)N)NC(=O)[C@@H]1CCCN1C(=O)[C@H](CCCNC(=N)N)NC(=O)[C@H]1CCCN1C(=O)[C@H](CC(C)C)NC(=O)[C@H](Cc1ccc(O)cc1)NC(=O)[C@@H]1CCCN1C(=O)[C@@H]1CCCN1C(=O)[C@H](CCCCN)NC(=O)[C@H](CC(=O)O)NC(=O)[C@@H](N)C(C)C)C(=O)N[C@@H](Cc1ccc(O)cc1)C(=O)N[C@@H](CC(N)=O)C(=O)N[C@@H](CCCNC(=N)N)C(N)=O [DP8-Onc] (H-VDKPPYL[dP]RPRPPRRIYNR-NH2),16 µg/mL,> 64 µg/mL,16 µg/mL,>64 µg/mL,16 µg/mL,> 64 µg/mL,16 µg/mL,>64 µg/mL,4 µg/mL,32 µg/mL,4 µg/mL,32 µg/mL,>64 / 64 μg/mL,>64 / 64 μg/mL,64 µg/mL,>64 µg/mL,16 µg/mL,> 64 µg/mL,16 µg/mL,>64 µg/mL,"Haemolysis on hRBC, MHC (human red blood cells): >1000 µg/mL; MHC human red blood cells (human red blood cells): >1000 µg/mL"
CC[C@H](C)[C@H](NC(=O)[C@H](CCCNC(=N)N)NC(=O)[C@H](CCCNC(=N)N)NC(=O)[C@@H]1CCCN1C(=O)[C@@H]1CCCN1C(=O)[C@H](CCCNC(=N)N)NC(=O)[C@H]1CCCN1C(=O)[C@H](CCCNC(=N)N)NC(=O)[C@@H]1CCCN1C(=O)[C@H](CC(C)C)NC(=O)[C@H](Cc1ccc(O)cc1)NC(=O)[C@@H]1CCCN1C(=O)[C@@H]1CCCN1C(=O)[C@H](CCCCN)NC(=O)[C@H](CC(=O)O)NC(=O)[C@@H](N)C(C)C)C(=O)N[C@@H](Cc1ccc(O)cc1)C(=O)N[C@@H](CC(N)=O)C(=O)N[C@@H](CCCNC(=N)N)C(N)=O [DP10-Onc] (H-VDKPPYLPR[dP]RPPRRIYNR-NH2),16 µg/mL,> 64 µg/mL,16 µg/mL,>64 µg/mL,4 µg/mL,32 µg/mL,4 µg/mL,32 µg/mL,4 µg/mL,16 µg/mL,4 µg/mL,16 µg/mL,>64 / >64 μg/mL,>64 / >64 μg/mL,>64 µg/mL,>64 µg/mL,8 µg/mL,64 µg/mL,8 µg/mL,64 µg/mL,"Haemolysis on hRBC, MHC (human red blood cells): >1000 µg/mL; MHC human red blood cells (human red blood cells): >1000 µg/mL"
CC[C@H](C)[C@H](NC(=O)[C@H](CCCNC(=N)N)NC(=O)[C@H](CCCNC(=N)N)NC(=O)[C@@H]1CCCN1C(=O)[C@H]1CCCN1C(=O)[C@H](CCCNC(=N)N)NC(=O)[C@@H]1CCCN1C(=O)[C@H](CCCNC(=N)N)NC(=O)[C@@H]1CCCN1C(=O)[C@H](CC(C)C)NC(=O)[C@H](Cc1ccc(O)cc1)NC(=O)[C@@H]1CCCN1C(=O)[C@@H]1CCCN1C(=O)[C@H](CCCCN)NC(=O)[C@H](CC(=O)O)NC(=O)[C@@H](N)C(C)C)C(=O)N[C@@H](Cc1ccc(O)cc1)C(=O)N[C@@H](CC(N)=O)C(=O)N[C@@H](CCCNC(=N)N)C(N)=O [DP12-Onc] (H-VDKPPYLPRPR[dP]PRRIYNR-NH2),16 µg/mL,> 64 µg/mL,16 µg/mL,>64 µg/mL,4 µg/mL,16 µg/mL,4 µg/mL,16 µg/mL,2 µg/mL,8 µg/mL,2 µg/mL,8 µg/mL,>64 / 64 μg/mL,>64 / 64 μg/mL,64 µg/mL,>64 µg/mL,8 µg/mL,16 µg/mL,8 µg/mL,16 µg/mL,"Haemolysis on hRBC, MHC (human red blood cells): >1000 µg/mL; MHC human red blood cells (human red blood cells): >1000 µg/mL"
CC[C@H](C)[C@H](NC(=O)[C@H](CCCNC(=N)N)NC(=O)[C@H](CCCNC(=N)N)NC(=O)[C@@H]1CCCN1C(=O)[C@@H]1CCCN1C(=O)[C@H](CCCNC(=N)N)NC(=O)[C@@H]1CCCN1C(=O)[C@H](CCCNC(=N)N)NC(=O)[C@@H]1CCCN1C(=O)[C@H](CC(C)C)NC(=O)[C@H](Cc1ccc(O)cc1)NC(=O)[C@H]1CCCN1C(=O)[C@H]1CCCN1C(=O)[C@H](CCCCN)NC(=O)[C@H](CC(=O)O)NC(=O)[C@@H](N)C(C)C)C(=O)N[C@@H](Cc1ccc(O)cc1)C(=O)N[C@@H](CC(N)=O)C(=O)N[C@@H](CCCNC(=N)N)C(N)=O [DP45-Onc] (H-VDK[dP][dP]YLPRPRPPRRIYNR-NH2),> 16 µg/mL,> 64 µg/mL,>16 µg/mL,>64 µg/mL,> 16 µg/mL,> 64 µg/mL,>16 µg/mL,>64 µg/mL,8 µg/mL,64 µg/mL,8 µg/mL,64 µg/mL,>64 / >64 μg/mL,>64 / >64 μg/mL,>64 µg/mL,>64 µg/mL,16 µg/mL,> 64 µg/mL,16 µg/mL,>64 µg/mL,"Haemolysis on hRBC, MHC (human red blood cells): >1000 µg/mL; MHC human red blood cells (human red blood cells): >1000 µg/mL"
